Source: ChEMBL document CHEMBL1152060, “Pentamidine congeners 1: Synthesis of Cis- and Trans-butamidine analogues as anti-Pneumocystis carinii pneumonia agents” (1993)

Assays:
Rattus norvegicus [1] = assay: In vivo toxicity […] at intravenous dosage of 10.0 mg/kg/day in rat; format: functional
Rattus norvegicus [2] = assay: Anti-Pneumocystis carinii Pneumonia activity at intravenous dosage of 10.0 mg/kg/day in rat; format: functional

| SMILES | Toxicity (Rattus norvegicus [1]) | Control (Rattus norvegicus [2]) [%] |
| --- | --- | --- |
| N=C(N)c1ccc(OCCCCCOc2ccc(C(=N)N)cc2)cc1 [PENTAMIDINE] | 2 | 4.5 |
| N=C(N)c1ccc(OC/C=C\COc2ccc(C(=N)N)cc2)cc1 | 0 | 1.3 |
| C(=C/COc1ccc(C2=NCCN2)cc1)/COc1ccc(C2=NCCN2)cc1 | 0 | 1.4 |
| C(=C\COc1ccc(C2=NCCN2)cc1)/COc1ccc(C2=NCCN2)cc1 | 0 | 1.5 |
| N=C(N)c1ccc(OC/C=C/COc2ccc(C(=N)N)cc2)cc1 | 0 | 0.8 |
